Values after ≈ are worked out from the molar mass of the structure shown.
Legend:
hematological tumors = experiment: Clinical study CHDM201X2101, HDM201 single agent; assay type: in vivo, human
Procedure: With this regimen, the RD has been determined as 45 mg HDM201 in hematological tumors in the CHDM201X2101 study. […] Proceedings of the American Association for Cancer Research Annual Meeting 2017; 2017 Apr. 1-5; Washington, D.C. Philadelphia (Pa.): AACR; Cancer Res 2017; 77 (13 Suppl): Abstract nr CT154. doi:10.1158/1538-7445.AM2017-CT154).
The starting dose and regimen selection for HDM201 in dose escalation is based on the previous Phase I dose escalation and expansion study of HDM201 as a single-agent in subjects with AML/MDS (CHDM201X2101) in which a dose of 45 mg/day (day 1-7/28-day cycle) was determined to be the RD. In this study, a starting dose and regimen of 20 mg/day HDM201 (day 1-5/28-day cycle) for dose escalation has been selected. The selection of dose and regimen was supported by single agent translational preclinical modeling of tumor bearing rats and population PK/PD modeling of thrombocytopenia and bone marrow blast data from CHDM201X2101 study in AML/MDS subjects. The starting dose corresponds to ˜[…] below the cumulative dose of HDM201 single agent RD (as evaluated in CHDM201X2101 at 45 mg/day (day 1-7/28-day cycle), or 315 mg/cycle). At this dose level, ˜15% of subjects are predicted to achieve preclinical derived average target efficacious concentrations of HDM201 per cycle, with some anticipated clinical activity (bone marrow blast reduction) and limited target myelosuppression.

[1] = Population PK model parameter estimates (NLME, Monolix) from CHDM201X2101 dataset; assay type: in vivo, human; conditions: population estimate
Source text: (§1) For model building the PK/PD dataset of CHDM201X2101 were used and an NLME estimation (Monolix 4.3.2) performed. The model structure and the parameter estimates are provided below. This provided inputs for R/shiny. The mlxR package were used for simulation of longitudinal data from the MLXTRAN model.
parameter={r, t1, t2, Tk0, ka, V, Cl, PLTz, MMTP, T12P, sPW, alp, lPW, kr1, kr1D, EC50, ke0, cfr, h, Sg, HGD, koutg, gdfZ, kinG}

platelet (PLT) = experiment: Population PK/PD platelet model parameter estimates (NLME, Monolix) from CHDM201X2101 dataset; assay type: in vivo, human; conditions: population estimate
Source text: Based on the population PK/PD data of the clinical study CHDM201X2101, an AML patients platelet model was developed which recognizes that the disease influences the regulation of platelets production. The following graphic elucidates the model.
as §1
EP1=kr1*E^h/(E^h+EC50^h)+kr1D*Cc

Colon 26 cells = experiment: Colon 26 Colorectal Cancer (CRC) syngeneic mouse model; assay type: in vivo
Procedure: Balb/c mice were implanted with 2×10^5 Colon 26 cells subcutaneously. Mice were treated with HDM201 at 40 mg/kg×3 every 3 h po on Days 10, 17 and 24 post cell implant, and anti-Tim3 antibody (murine cross reactive clone 5D12) at 5 mg/kg ip on days 10, 13, 17, and 20. End-point was defined as tumor volume equal or greater than 1000 mm^3.
The anti-tumor effects of HDM201 as a monotherapy or in combination with an anti-TIM3 antibody were evaluated in the Colon 26 Colorectal Cancer (CRC) syngeneic mouse model.

[2] = Clinical study CPDR001X2105, MBG453 in AML/MDS subjects; assay type: in vivo, human; conditions: 400 mg Q2W and 800 mg Q4W
Procedure: (§2) The MBG453 single agent RD has been determined as 800 mg Q4W in solid tumor subjects primarily based on PK and PKPD modeling of target (TIM-3) occupancy. MBG453 at the dose level of 800 mg Q4W was predicted to give sustained target occupancy of 90% in tumor in >90% of subjects. […] MBG453 single agent is also being evaluated in AML/MDS subjects in the CPDR001X2105 study with Q4W and Q2W regimens.
The RD in AML/MDS has not yet been determined, however it is not expected to be different from solid tumors, based on preliminary PK and safety data.

[3] = Clinical study CMBG453X2101, MBG453 single agent in solid tumor subjects; assay type: in vivo, human; conditions: Q4W, based on PK and PKPD modeling of TIM-3 occupancy
Procedure: as §2

[4] = learning from clinical study CHDM201X2101
[5] = Balb/c mice, Colon 26 sc, HDM201 40 mg/kg x3 every 3 h po days 10, 17, 24, anti-Tim3 antibody 5 mg/kg ip days 10, 13, 17, 20

With `COc1ncc(-c2nc3c(n2C(C)C)[C@H](c2ccc(Cl)cc2)N(c2cc(Cl)cn(C)c2=O)C3=O)c(OC)n1` [HDM201, (S)-5-(5-Chloro-1-methyl-2-oxo-1,2-dihydro-pyridin-3-yl)-6-(4-chloro-phenyl)-2-(2,4-dimethoxy-pyrimidin-5-yl)-1-isopropyl-5,6-dihydro-1H-pyrrolo[3,4-d]imidazol-4-one] the “RD (recommended dose)” value (hematological tumors; day 1-7/28-day cycle, single-agent, subjects with AML/MDS) was 45 mg/day, the “hematopoietic recovery on dosing in AML” value (hematological tumors; [4]) was “Delayed hematopoietic recovery” and the “platelet toxicity on dosing in AML” value (hematological tumors; [4]) was “Cumulative platelet toxicity”. For the same compound, the “RD (recommended dose)” value (hematological tumors; once daily day 1 to day 7 of a 28-day cycle, hematological tumors) was 45 mg, the pop_Tk0 [1] was 1.314 and the pop_Cl ([1]; method=FIXED) was 6.18. It also gave a pop_V ([1]; method=FIXED) of 119, a pop_ka ([1]; method=FIXED) of 0.489 and a pop_t1 ([1]; method=FIXED, absorption lag (Tlag=t1)) of 0.69. The pop_t2 ([1]; method=FIXED, absorption lag (Tlag=t2)) was 0.412, the pop_r ([1]; method=FIXED, fraction for zero-order absorption) was 0.617 and the EC50 (platelet (PLT); Homo sapiens, drug effect EP1 on platelet production, read-out: pop_EC50) was 0.261 µg/mL (≈ 0.469 µM). It also gave a pop_h (platelet (PLT); method=FIXED, exponent h in EP1) of 2, a pop_kr1D (platelet (PLT); concentration-proportional term of EP1) of 0.006491 and a pop_ke0 (platelet (PLT); effect compartment) of 6.152e-05. For the same compound, the pop_kr1 (platelet (PLT); maximal term of drug effect EP1) was 2.1374, the “anti-tumor effects (tumor growth)” value (Colon 26 cells; [5]) was “inhibited tumor growth” and the “complete tumor regressions (CR)” value (Colon 26 cells; [5]) was 1 CR. For the same compound, the “anti-tumor immune memory / resistance to re-challenge” value (Colon 26 cells; mice with CR or long-term survival, Colon 26 cells) was “develop antitumor immunity and are resistant to re-challenge with the same tumor cells”.

In the case of “MBG453: high-affinity, humanized anti-TIM-3 IgG4 monoclonal antibody which blocks the binding of TIM-3 to phosphatidylserin (PtdSer)”, the “tolerability in AML/MDS” value [2] was “well tolerated” and the “single agent RD (recommended dose)” value [3] was 800 mg.

Reference: patent publication US20220281970A1, “Pharmaceutical Combinations” (Novartis AG, priority 2018, published 2022)
